What was measured:
Type in all cases: biochemical
[1] = molecular target: T1, HCV NS3/4A protease complex, H77 strain (Hepatitis C virus genotype 1a, UniProt P27958, C1454S/C1711G); assay: FRET peptide assay to monitor HCV NS3/4A proteolytic activity (H77 strain)
T1 construct: DNA encoding the recombinant HCV NS3/4A protease complex (amino acids 1027 to 1711) for these strains; inferred from the pET21b vector and Ni-NTA purification; made in house; host or cells: Escherichia coli BL21 (DE3), pET21b
From the text: (§1) HCV NS3 protease complexes, derived from the BMS strain, H77 strain or J4L6S strain, were generated, as described below. These purified recombinant proteins were generated for use in a homogeneous assay (see below) to provide an indication of how effective compounds of the present disclosure would be in inhibiting HCV NS3 proteolytic activity.
(§2) Serum from an HCV-infected patient was obtained from Dr. T. Wright, San Francisco Hospital. An engineered full-length cDNA (compliment deoxyribonucleic acid) template of the HCV genome (BMS strain) was constructed from DNA fragments obtained by reverse transcription-PCR (RT-PCR) of serum RNA (ribonucleic acid) and using primers selected on the basis of homology between other genotype 1a strains. From the determination of the entire genome sequence, a genotype 1a was assigned to the HCV isolate according to the classification of Simmonds et al. (See P Simmonds, K A Rose, S Graham, S W Chan, F McOmish, B C Dow, E A Follett, P L Yap and H Marsden, J. Clin. Microbiol., 31(6), 1493-1503 (1993)). […]

[2] = molecular target: T2, HCV NS3/4A protease complex, J4L6S strain (Hepatitis C virus genotype 1b, UniProt O92972, C1454S/C1711G); assay: FRET peptide assay to monitor HCV NS3/4A proteolytic activity (J4L6S strain)
T2 construct: DNA encoding the recombinant HCV NS3/4A protease complex (amino acids 1027 to 1711) for these strains; inferred from the pET21b vector and Ni-NTA purification; made in house; host or cells: Escherichia coli BL21 (DE3), pET21b
From the text: as §1, §2

[3] = molecular target: T3, porcine pancreatic elastase (PPE) (Sus scrofa, UniProt P00772); assay: Specificity assay, pancreatic elastase; settings: read-out: PPE activity in the specificity assays
T3 construct: purchased Sigma or EMDbiosciences
Method: The specificities of compounds of the present disclosure were determined against a variety of serine proteases: human neutrophil elastase (HNE), porcine pancreatic elastase (PPE) and human pancreatic chymotrypsin and one cysteine protease: human liver cathepsin B. In all cases, a 96-well plate format protocol using colorimetric p-nitroaniline (pNA) substrate or fluorometric Amino-Methyl-Coumarin (AMC) substrate, specific for each enzyme was used as described previously (PCT Patent Application No. WO 00/09543) with some modifications. All enzymes were purchased from Sigma or EMDbiosciences while the substrates were from Bachem.
Each pNA assay included a 2 h enzyme-inhibitor pre-incubation at room temperature followed by addition of substrate and hydrolysis to ˜15% conversion as measured on a Spectramax Pro microplate reader. The cathepsin B assay was initiated by adding substrate to a 10 min enzyme-inhibitor pre-incubation at room temperature, and the assay plate measured immediately using the Cytofluor Series 4000. Compound concentrations varied from 100 to 0.4 μM depending on their potency.
The final conditions for each assay were as follows: […]
The percentage of inhibition was calculated using the formula: [1−((UVinh−UVblank)/(UVctl−UVblank))]×100 […]

T3 sequence (P00772 27-266): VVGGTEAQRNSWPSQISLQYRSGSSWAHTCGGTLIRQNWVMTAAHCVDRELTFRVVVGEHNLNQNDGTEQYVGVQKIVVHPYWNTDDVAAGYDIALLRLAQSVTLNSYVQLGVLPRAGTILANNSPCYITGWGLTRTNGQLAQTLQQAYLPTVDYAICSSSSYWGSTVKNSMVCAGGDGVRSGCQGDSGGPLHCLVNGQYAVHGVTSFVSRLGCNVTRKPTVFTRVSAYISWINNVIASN
T2 sequence (O92972 1027-1711 C1454S/C1711G, one chain of several): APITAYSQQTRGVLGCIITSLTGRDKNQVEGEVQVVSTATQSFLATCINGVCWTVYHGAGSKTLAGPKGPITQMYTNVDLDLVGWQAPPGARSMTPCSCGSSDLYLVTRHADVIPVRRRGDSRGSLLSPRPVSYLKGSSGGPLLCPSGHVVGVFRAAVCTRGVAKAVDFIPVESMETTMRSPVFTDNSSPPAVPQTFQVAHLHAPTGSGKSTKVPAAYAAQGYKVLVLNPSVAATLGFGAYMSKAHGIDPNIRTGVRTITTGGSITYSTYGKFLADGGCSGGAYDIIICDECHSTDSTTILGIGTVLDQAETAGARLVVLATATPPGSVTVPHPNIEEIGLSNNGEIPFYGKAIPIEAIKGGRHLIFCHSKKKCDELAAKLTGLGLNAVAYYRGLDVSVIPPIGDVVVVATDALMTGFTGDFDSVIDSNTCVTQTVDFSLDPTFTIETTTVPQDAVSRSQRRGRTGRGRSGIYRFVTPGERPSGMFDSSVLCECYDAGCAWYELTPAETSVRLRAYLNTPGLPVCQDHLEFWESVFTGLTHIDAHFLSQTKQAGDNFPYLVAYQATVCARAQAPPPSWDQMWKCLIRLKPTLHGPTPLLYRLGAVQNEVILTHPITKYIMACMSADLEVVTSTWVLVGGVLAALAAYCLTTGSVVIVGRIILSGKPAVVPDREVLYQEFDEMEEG
T1 sequence (P27958 1027-1711 C1454S/C1711G, one chain of several): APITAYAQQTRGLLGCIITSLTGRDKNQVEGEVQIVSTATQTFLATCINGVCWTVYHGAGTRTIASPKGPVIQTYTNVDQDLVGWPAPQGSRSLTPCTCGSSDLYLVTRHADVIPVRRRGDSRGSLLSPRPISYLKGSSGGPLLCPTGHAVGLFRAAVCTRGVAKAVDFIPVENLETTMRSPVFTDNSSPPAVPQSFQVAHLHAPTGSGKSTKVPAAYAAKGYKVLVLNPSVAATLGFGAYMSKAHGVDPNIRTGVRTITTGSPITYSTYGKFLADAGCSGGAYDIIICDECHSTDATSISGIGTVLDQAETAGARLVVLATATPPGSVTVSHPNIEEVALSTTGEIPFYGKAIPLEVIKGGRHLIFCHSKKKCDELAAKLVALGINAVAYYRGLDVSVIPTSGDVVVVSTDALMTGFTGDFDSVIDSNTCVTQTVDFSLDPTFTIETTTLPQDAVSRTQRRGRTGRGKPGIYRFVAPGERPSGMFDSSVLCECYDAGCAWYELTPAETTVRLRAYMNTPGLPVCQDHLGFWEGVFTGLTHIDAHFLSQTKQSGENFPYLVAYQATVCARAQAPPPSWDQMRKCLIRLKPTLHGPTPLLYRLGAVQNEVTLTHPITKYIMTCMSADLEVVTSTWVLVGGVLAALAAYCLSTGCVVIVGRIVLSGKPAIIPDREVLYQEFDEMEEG

Question: CC(C)(C)OC(=O)N[C@H]1CCCCC/C=C\[C@@H]2C[C@@]2(C(=O)NS(=O)(=O)C2CC2)NC(=O)[C@@H]2C[C@@H](OC(=O)c3ccc(C#N)cc3)CN2C1=O [Compound 26, 18-(4-cyanobenzoyloxy)-14-tert-butoxycarbonylamino-4-cyclopropylsulfonylaminocarbonyl-2,15-dioxo-3,16-diazatricyclo-[14.3.0.0^4,6]-nonadec-7-ene] was tested. Which IC50 [1] did it give?
Answer: 0.53 nM

Question: And the IC50 [2]?
Answer: 0.23 nM

Question: And the IC50 [3]?
Answer: > 100000 nM
